Active and inactive are the calls of the source. No cut-off for these calls is given here.
What was measured:
Bactrocera oleae [1] = test: Insecticidal activity against Bactrocera oleae exposed to 0.45 ug/cm2 compound for 12 hr assessed as insect mortality measured 72 hr post dose by petri dish exposure bioassay (reference value: 2 +/- 2%); type: functional, organism-based
Bactrocera oleae [2] = test: Insecticidal activity against Bactrocera oleae exposed to compound for 12 hr assessed as insect mortality measured 72 hr post dose by petri dish exposure bioassay (reference value: 2 +/- 2%); type: functional, organism-based
Bactrocera oleae [3] = test: Insecticidal activity against Bactrocera oleae exposed to 1.12 ug/cm2 compound for 12 hr assessed as insect mortality measured 72 hr post dose by petri dish exposure bioassay (reference value: 2 +/- 2%); type: functional

Structure (SMILES)	Activity (Bactrocera oleae [1])	Activity (Bactrocera oleae [2])	mortality (Bactrocera oleae [3]) [%]
COc1ccc2ccc(=O)oc2c1CC=C(C)C	inactive		
COc1c2ccoc2cc2oc(=O)ccc12	inactive	inactive	
C/C(=C\COc1c2ccoc2cc2oc(=O)ccc12)CCC1OC1(C)C (centres undefined) [6',7'-EPOXYBERGAMOTTIN]			48

From ChEMBL document CHEMBL3046435, “Isolation and identification of insecticidal components from Citrus aurantium fruit peel extract” (2008)
